Data as given in US11034725B2, “Compositions and methods for treating cardiovascular disease” (Genentech, Inc., priority 2016, dated 2021).
Read-outs that look alike come from different tables or passages of the source. Numbered stars: 1 amine (or outer) side, 2 acyl side, 3 side chain; on linkers, the order of the positions; unused ones are H or OH. Bridge positions count the residues as written; N and C are the ends. Square brackets hold non-standard residues; d marks the D form. Peptide text beside a SMILES is read from it. * marks the point of attachment. Trp(6-Br) = N[C@@H](Cc1c[nH]c2cc(Br)ccc12)C(=O)O; Butanoyl(4-(4-HOPh)) = O=C(CCCc1ccc(O)cc1)*; Dihydrocaffeoyl = O=C(CCc1ccc(O)c(O)c1)*; X9 = O=C([C@@H]1C(O)CCN1[*:1])[*:2]; X17 = O=C([C@H]1C[C@@H]1c1cccnc1)*; hArg = N=C(N)NCCCC[C@H](N)C(=O)O; X8 = O=C(c1ccc(N2CCOCC2)nc1)*; X42 = O=C(c1ccc2cc[nH]c2c1)*; X25 = COc1cc(CCC(=O)*)ccc1O; X29 = Nc1ccc(CCC(=O)*)cc1; X30 = O=C(CCc1cccc(O)c1)*; Pentanoyl = CCCCC(=O)*

Experiments:
[1] = system: His-EGF(A)-Fc; experiment: His-EGF(A)-Fc TR-FRET counterscreen
[2] = biological target: T1, PCSK9Δhelix (Homo sapiens, UniProt Q8NBP7); experiment: PCSK9Δhelix/Ab20 TR-FRET binding assay
T1 construct: Human PCSK9 construct M1-Q692 with an engineered TEV site (residue deletion Y166, R167); made in house; host or cells: CHO
T1 sequence (Q8NBP7 with tags, fused parts or gaps limits assumed): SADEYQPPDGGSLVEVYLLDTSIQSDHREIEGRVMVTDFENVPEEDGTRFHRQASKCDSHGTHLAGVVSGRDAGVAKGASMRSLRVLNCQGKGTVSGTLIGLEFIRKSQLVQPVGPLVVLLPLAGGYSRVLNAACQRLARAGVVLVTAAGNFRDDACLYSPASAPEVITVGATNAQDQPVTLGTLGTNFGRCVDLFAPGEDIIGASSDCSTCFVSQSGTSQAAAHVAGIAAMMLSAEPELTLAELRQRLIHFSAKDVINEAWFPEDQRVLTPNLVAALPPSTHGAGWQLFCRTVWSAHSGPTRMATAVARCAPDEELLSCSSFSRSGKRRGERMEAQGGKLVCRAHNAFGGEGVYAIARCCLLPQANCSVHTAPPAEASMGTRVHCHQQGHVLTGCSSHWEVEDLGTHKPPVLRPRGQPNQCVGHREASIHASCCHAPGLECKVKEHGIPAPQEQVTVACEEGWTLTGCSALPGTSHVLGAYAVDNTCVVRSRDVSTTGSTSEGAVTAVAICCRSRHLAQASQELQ
T1 sequence (Q8NBP7 31-152 partner limits assumed): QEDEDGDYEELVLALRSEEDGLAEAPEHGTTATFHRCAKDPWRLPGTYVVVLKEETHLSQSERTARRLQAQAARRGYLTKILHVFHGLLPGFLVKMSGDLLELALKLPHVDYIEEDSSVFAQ

[3] = biological target: PCSK9 (Homo sapiens, UniProt Q8NBP7); experiment: PCSK9/EGF(A) TR-FRET binding assay
PCSK9, sequence (Q8NBP7 153-692): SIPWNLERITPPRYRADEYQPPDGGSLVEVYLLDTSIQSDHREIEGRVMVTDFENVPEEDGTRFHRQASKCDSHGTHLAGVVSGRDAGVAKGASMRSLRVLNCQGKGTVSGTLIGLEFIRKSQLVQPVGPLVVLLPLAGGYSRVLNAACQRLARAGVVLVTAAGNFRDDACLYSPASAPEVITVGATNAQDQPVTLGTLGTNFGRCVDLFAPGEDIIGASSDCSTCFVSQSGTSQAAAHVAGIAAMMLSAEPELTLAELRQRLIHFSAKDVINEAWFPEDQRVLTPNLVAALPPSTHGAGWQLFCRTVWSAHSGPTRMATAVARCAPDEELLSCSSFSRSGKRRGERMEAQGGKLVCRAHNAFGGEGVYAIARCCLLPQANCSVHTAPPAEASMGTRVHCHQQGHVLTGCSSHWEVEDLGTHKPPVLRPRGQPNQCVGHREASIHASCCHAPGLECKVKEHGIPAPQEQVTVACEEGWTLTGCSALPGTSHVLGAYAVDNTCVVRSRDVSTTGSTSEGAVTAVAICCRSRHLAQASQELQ
PCSK9, sequence (Q8NBP7 31-152 partner limits assumed): as the sequence (Q8NBP7 31-152 partner limits assumed) above

[4] = TR-FRET, Example 7, read-out: PCSK9Δhelix/Ab20 IC50
[5] = TR-FRET counterscreen, Table 8E, additional compounds
[6] = TR-FRET, Table 8E, additional compounds, read-out: PCSK9Δhelix/Ab20 IC50
[7] = TR-FRET, Table 8E, additional compounds, read-out: PCSK9/EGF(A) IC50

| Compound | IC50 [2, 6] [µM] | IC50 [3, 7] [µM] | further results |
| --- | --- | --- | --- |
| CC(=O)N[C@H](C(=O)N[C@H](C(=O)N[C@@H](Cc1ccccc1)C(=O)N[C@H](C(=O)N[C@@H](CO)C(=O)N[C@@H](Cc1c[nH]c2ccccc12)C(=O)N[C@@H](CCC(=O)O)C(=O)N[C@@H](CCC(=O)O)C(=O)N[C@@H](Cc1ccc(O)cc1)C(=O)N[C@@H](CC(C)C)C(=O)N[C@@H](CC(=O)O)C(=O)N[C@@H](Cc1c[nH]c2ccccc12)C(=O)N[C@H](C(=O)NCC(=O)N[C@@H](CO)C(=O)NCC(=O)N[C@H]1CSSC[C@@H](C(N)=O)NC(=O)CNC(=O)[C@H](CCC(N)=O)NC(=O)[C@H](CO)NC(=O)CNC(=O)[C@H](C(C)C)NC(=O)[C@H](CCCNC(=N)N)NC(=O)[C@H](CCCCN)NC(=O)[C@H](CC(C)C)NC(=O)[C@H](CC(N)=O)NC(=O)[C@H](Cc2c[nH]c3ccccc23)NC1=O)C(C)C)[C@@H](C)O)C(C)C)[C@@H](C)O [Compound 12] (Ac-TVFTSWEEYLDWVGSGCWNLKRVGSQGC-NH2; disulfide 17-28) |  |  | IC50 ([1]; counterscreen, Example 7): > 50 µM |
| CC(=O)N[C@H](C(=O)N[C@H](C(=O)N[C@@H](Cc1ccccc1)C(=O)N[C@H](C(=O)N[C@@H](CO)C(=O)N[C@@H](Cc1c[nH]c2ccccc12)C(=O)N[C@@H](CCC(=O)O)C(=O)N[C@@H](CCC(=O)O)C(=O)N[C@@H](Cc1ccc(O)cc1)C(=O)N[C@@H](CC(C)C)C(=O)N[C@@H](CC(=O)O)C(=O)N[C@@H](Cc1c[nH]c2ccccc12)C(=O)N[C@H](C(=O)NCCCCCCC(=O)N[C@@H](CCCCN)C(=O)N[C@@H](CC(C)C)C(=O)N[C@@H](Cc1c[nH]c2ccccc12)C(=O)N[C@@H](CC(N)=O)C(=O)N[C@@H](CC(C)C)C(=O)NCC(=O)N[C@@H](CCCNC(=N)N)C(=O)N[C@H](C(N)=O)C(C)C)C(C)C)[C@@H](C)O)C(C)C)[C@@H](C)O [Compound 16] |  |  | IC50 [2, 4]: 0.028 µM; IC50 ([1]; counterscreen, Example 7): > 50 µM |
| CC(=O)N[C@H](C(=O)N[C@H](C(=O)N[C@@H](Cc1ccccc1)C(=O)N[C@H](C(=O)N[C@@H](CO)C(=O)N[C@@H](Cc1c[nH]c2ccccc12)C(=O)N[C@@H](CCC(=O)O)C(=O)N[C@@H](CCC(=O)O)C(=O)N[C@@H](Cc1ccc(O)cc1)C(=O)N[C@@H](CC(C)C)C(=O)N[C@@H](CC(=O)O)C(=O)N[C@@H](Cc1c[nH]c2ccccc12)C(=O)N[C@H](C(=O)NCCCCCC(=O)N[C@@H](CCCCN)C(=O)N[C@@H](CC(C)C)C(=O)N[C@@H](Cc1c[nH]c2ccccc12)C(=O)N[C@@H](CC(N)=O)C(=O)N[C@@H](CC(C)C)C(=O)NCC(=O)N[C@@H](CCCNC(=N)N)C(=O)N[C@H](C(N)=O)C(C)C)C(C)C)[C@@H](C)O)C(C)C)[C@@H](C)O [Compound 18] |  |  | IC50 [2, 4]: 0.04 µM; IC50 ([1]; counterscreen, Example 7): > 50 µM |
| CC[C@H](C)[C@@H]1NC(=O)[C@H](CCCNC(=N)N)NC(=O)[C@H](CCC(N)=O)NC(=O)[C@H](CC(C)C)NC(=O)[C@H](CC(N)=O)NC(=O)[C@H](Cc2c[nH]c3ccccc23)NC(=O)[C@@H]2C(O)CCN2C(=O)[C@H](CC(C)C)NC(=O)[C@H](CCCNC(=N)N)NC(=O)[C@@H](NC(=O)CNC(=O)[C@H](CO)NC(C)=O)CSSC[C@@H](C(N)=O)NC(=O)[C@@H]2CCCN2C(=O)[C@H](CC(C)C)NC(=O)CNC1=O (some centres unmarked) [Compound 37] (Ac-SGCRL[X9]WNLQRIGLPC-NH2; disulfide 3-16) |  |  | IC50 ([1]; TR-FRET counterscreen, Table 8D, * = some inhibition at highest concentrations, not sufficient to fit an IC50): > 50 µM |
| CCCCC(=O)N[C@@H](Cc1c[nH]c2cc(Br)ccc12)C(=O)N[C@@H](CC(N)=O)C(=O)N[C@@H](CC(C)C)C(=O)N[C@H](C(=O)N[C@@H](CCCNC(=N)N)C(=O)N[C@H](C(=O)NCC(=O)N[C@@H](CC(C)C)C(=O)N[C@H](C(=O)N[C@@H](CCCNC(=N)N)C(N)=O)[C@@H](C)O)[C@@H](C)CC)C(C)C [Compound 187] (Pentanoyl-[Trp(6-Br)]NLVRIGLTR-NH2) |  |  | IC50 [1, 5]: 38 µM |
| CC[C@H](C)[C@H](NC(=O)[C@H](CCCCNC(=N)N)NC(=O)[C@@H](NC(=O)[C@H](CC(C)C)NC(=O)[C@H](CC(N)=O)NC(=O)[C@H](Cc1c[nH]c2ccccc12)NC(=O)CCc1cccc(O)c1)C(C)C)C(=O)NCC(=O)N[C@@H](CC(C)C)C(=O)N[C@@H](CC(C)C)C(=O)N[C@@H](CCCNC(=N)N)C(N)=O [Compound 217] (X30-WNLV[hArg]IGLLR-NH2) | 0.39 | 4.1 |  |
| CC[C@H](C)[C@H](NC(=O)[C@H](CCCCNC(=N)N)NC(=O)[C@@H](NC(=O)[C@H](CC(C)C)NC(=O)[C@H](CC(N)=O)NC(=O)[C@H](Cc1c[nH]c2ccccc12)NC(=O)CCc1ccc(N)cc1)C(C)C)C(=O)NCC(=O)N[C@@H](CC(C)C)C(=O)N[C@@H](CC(C)C)C(=O)N[C@@H](CCCNC(=N)N)C(N)=O [Compound 218] (X29-WNLV[hArg]IGLLR-NH2) | 0.26 | 5 |  |
| CC[C@H](C)[C@H](NC(=O)[C@H](CCCCNC(=N)N)NC(=O)[C@@H](NC(=O)[C@H](CC(C)C)NC(=O)[C@H](CC(N)=O)NC(=O)[C@H](Cc1c[nH]c2ccccc12)NC(=O)c1ccc(N2CCOCC2)nc1)C(C)C)C(=O)NCC(=O)N[C@@H](CC(C)C)C(=O)N[C@@H](CC(C)C)C(=O)N[C@@H](CCCNC(=N)N)C(N)=O [Compound 219] (X8-WNLV[hArg]IGLLR-NH2) | 0.68 | 9.9 |  |
| CC[C@H](C)[C@H](NC(=O)[C@H](CCCCNC(=N)N)NC(=O)[C@@H](NC(=O)[C@H](CC(C)C)NC(=O)[C@H](CC(N)=O)NC(=O)[C@H](Cc1c[nH]c2ccccc12)NC(=O)CCCc1ccc(O)cc1)C(C)C)C(=O)NCC(=O)N[C@@H](CC(C)C)C(=O)N[C@@H](CC(C)C)C(=O)N[C@@H](CCCNC(=N)N)C(N)=O [Compound 220] ({Butanoyl(4-(4-HOPh))}-WNLV[hArg]IGLLR-NH2) | 0.91 | 37 |  |
| CC[C@H](C)[C@H](NC(=O)[C@H](CCCCNC(=N)N)NC(=O)[C@@H](NC(=O)[C@H](CC(C)C)NC(=O)[C@H](CC(N)=O)NC(=O)[C@H](Cc1c[nH]c2ccccc12)NC(=O)c1ccc2cc[nH]c2c1)C(C)C)C(=O)NCC(=O)N[C@@H](CC(C)C)C(=O)N[C@@H](CC(C)C)C(=O)N[C@@H](CCCNC(=N)N)C(N)=O [Compound 222] (X42-WNLV[hArg]IGLLR-NH2) | 1.4 | 21 |  |
| CC[C@H](C)[C@H](NC(=O)[C@H](CCCCNC(=N)N)NC(=O)[C@@H](NC(=O)[C@H](CC(C)C)NC(=O)[C@H](CC(N)=O)NC(=O)[C@H](Cc1c[nH]c2ccccc12)NC(=O)[C@H](N)Cc1ccc(O)cc1)C(C)C)C(=O)NCC(=O)N[C@@H](CC(C)C)C(=O)N[C@@H](CC(C)C)C(=O)N[C@@H](CCCNC(=N)N)C(N)=O [Compound 223] (H-[dY]WNLV[hArg]IGLLR-NH2) | 1.4 | 21 |  |
| CC[C@H](C)[C@H](NC(=O)[C@H](CCCCNC(=N)N)NC(=O)[C@@H](NC(=O)[C@H](CC(C)C)NC(=O)[C@H](CC(N)=O)NC(=O)[C@H](Cc1c[nH]c2ccccc12)NC(=O)CCc1ccc(O)c(O)c1)C(C)C)C(=O)NCC(=O)N[C@@H](CC(C)C)C(=O)N[C@@H](CC(C)C)C(=O)N[C@@H](CCCNC(=N)N)C(N)=O [Compound 224] (Dihydrocaffeoyl-WNLV[hArg]IGLLR-NH2) | 0.53 | 7 |  |
| CC[C@H](C)[C@H](NC(=O)[C@H](CCCCNC(=N)N)NC(=O)[C@@H](NC(=O)[C@H](CC(C)C)NC(=O)[C@H](CC(N)=O)NC(=O)[C@H](Cc1c[nH]c2ccccc12)NC(=O)[C@H]1C[C@@H]1c1cccnc1)C(C)C)C(=O)NCC(=O)N[C@@H](CC(C)C)C(=O)N[C@@H](CC(C)C)C(=O)N[C@@H](CCCNC(=N)N)C(N)=O [Compound 225] (X17-WNLV[hArg]IGLLR-NH2) | 1.8 | 27 |  |
| CC[C@H](C)[C@H](NC(=O)[C@H](CCCCNC(=N)N)NC(=O)[C@@H](NC(=O)[C@H](CC(C)C)NC(=O)[C@H](CC(N)=O)NC(=O)[C@H](Cc1c[nH]c2ccccc12)NC(=O)[C@@H](N)Cc1ccc(O)cc1)C(C)C)C(=O)NCC(=O)N[C@@H](CC(C)C)C(=O)N[C@@H](CC(C)C)C(=O)N[C@@H](CCCNC(=N)N)C(N)=O [Compound 226] (H-YWNLV[hArg]IGLLR-NH2) | 0.35 | 6.2 |  |
| CC[C@H](C)[C@H](NC(=O)[C@H](CCCCNC(=N)N)NC(=O)[C@@H](NC(=O)[C@H](CC(C)C)NC(=O)[C@H](CC(N)=O)NC(=O)[C@H](Cc1c[nH]c2ccccc12)NC(=O)CCc1ccc(O)c(OC)c1)C(C)C)C(=O)NCC(=O)N[C@@H](CC(C)C)C(=O)N[C@@H](CC(C)C)C(=O)N[C@@H](CC(N)=O)C(N)=O [Compound 238] (X25-WNLV[hArg]IGLLN-NH2) | 0.33 | 7.7 |  |
| CC[C@H](C)[C@H](NC(=O)[C@H](CCCCNC(=N)N)NC(=O)[C@@H](NC(=O)[C@H](CC(C)C)NC(=O)[C@H](CC(N)=O)NC(=O)[C@H](Cc1c[nH]c2ccccc12)NC(=O)CCc1ccc(O)c(OC)c1)C(C)C)C(=O)NCC(=O)N[C@@H](CCC(N)=O)C(=O)N[C@@H](CCCNC(=N)N)C(N)=O [Compound 239] (X25-WNLV[hArg]IGQR-NH2) |  |  | IC50 ([2]; PCSK9Δhelix/Ab20 IC50, TR-FRET, Table 8E, additional compounds): 1.2 µM; IC50 [3]: 32 µM |
| CC[C@H](C)[C@H](NC(=O)[C@H](CCCCNC(=N)N)NC(=O)[C@@H](NC(=O)[C@H](CC(C)C)NC(=O)[C@H](CC(N)=O)NC(=O)[C@H](Cc1c[nH]c2ccccc12)NC(=O)CCc1ccc(O)c(OC)c1)C(C)C)C(=O)NCC(=O)N[C@@H](CC(N)=O)C(=O)N[C@@H](CCCNC(=N)N)C(N)=O [Compound 240] (X25-WNLV[hArg]IGNR-NH2) | 0.92 | 31 |  |
| CC[C@H](C)[C@@H]1NC(=O)[C@H](CCCNC(=N)N)NC(=O)[C@H](CCC(N)=O)NC(=O)[C@H](CC(C)C)NC(=O)[C@H](CC(N)=O)NC(=O)[C@H](Cc2c[nH]c3ccccc23)NC(=O)[C@@H]2C(O)CCN2C(=O)[C@H]([C@@H](C)CC)NC(=O)[C@H](Cc2ccccc2)NC(=O)[C@@H](NC(=O)CNC(=O)[C@H](CO)NC(C)=O)CSSC[C@@H](C(N)=O)NC(=O)[C@H](CC(C)C)NC(=O)[C@H](CC(C)C)NC(=O)CNC1=O (some centres unmarked) [Compound 242] (Ac-SGCFI[X9]WNLQRIGLLC-NH2; disulfide 3-16) |  |  | IC50 [1, 5]: ≥ 50 µM |
